ChEMBL document CHEMBL1136937, “Discovery of a potent class I selective ketone histone deacetylase inhibitor with antitumor activity in vivo and optimized pharmacokinetic properties” (J Med Chem, 2009)
Converted amounts (≈) assume the structure as drawn. Each block holds one compound with its values, some of them ahead of it. The source made the active and inactive calls. No cut-off for these calls is given here.

How the values were obtained:
[1] = molecular target: Histone deacetylase 1 (Homo sapiens, UniProt Q13547)
Description: Inhibition of human C-terminal FLAG-tagged HDAC1 in HEK293 cells

[2] = tested on: HeLa; experiment: Antiproliferative activity against human P53-deficient HeLa cells after 72 hrs by celltiter-blue cell viability assay; type: functional
[3] = Metabolic stability in human liver microsomes assessed as intrinsic clearance at 1 uM after 90 mins; type: ADME, Microsome; conditions: liver microsomes
[4] = Metabolic stability in dog liver microsomes assessed as intrinsic clearance at 1 uM after 90 mins; type: ADME, Canis lupus familiaris, Microsome; conditions: liver microsomes
[5] = Metabolic stability in rat liver microsomes assessed as intrinsic clearance at 1 uM after 90 mins; type: ADME, Microsome
[6] = tested on: A2780; experiment: Antiproliferative activity against human A2780 cells after 72 hrs by celltiter-blue cell viability assay; type: functional; conditions: A2780, 72 h
[7] = tested on: A549; experiment: Antiproliferative activity against human P53 expressing A549 cells after 72 hrs by celltiter-blue cell viability assay; type: functional; conditions: A549, 72 h
[8] = tested on: G-401; experiment: Antiproliferative activity against human G401 cells after 72 hrs by celltiter-blue cell viability assay; type: functional; conditions: Homo sapiens, G-401, 72 h
[9] = tested on: HCT-116; experiment: Antiproliferative activity against human P53 expressing HCT116 cells after 72 hrs by celltiter-blue cell viability assay; type: functional; conditions: Homo sapiens, HCT-116, 72 h
[10] = Clearance in Sprague-Dawley rat plasma at 3 mg/kg, iv and 3 mg/kg, po; type: ADME, organism-based
[11] = tested on: HCT-116; experiment: Antitumor activity against human HCT116 cells xenografted nude mouse assessed as reduction in tumor growth at […], ip administered once daily for 5 days per week; type: functional, organism-based
[12] = molecular target: T1, Cytochrome P450 3A4 (Homo sapiens, UniProt P08684); experiment: Induction of CYP3A4; type: ADME
[13] = tested on: MCF7; experiment: Antiproliferative activity against human MCF7 cells after 72 hrs by celltiter-blue cell viability assay; type: functional; conditions: Homo sapiens, MCF7, 72 h
[14] = Plasma concentration in Sprague-Dawley rat at 3 mg/kg, po after 24 hrs; type: ADME, organism-based; parameters: dose 3 mg/kg, route oral
[15] = molecular target: T1, Cytochrome P450 3A4; experiment: Inhibition of CYP3A4; type: ADME
[16] = Volume of distribution at steady state in Beagle dog at 1 mg/kg, iv and 2 mg/kg, po; type: ADME, organism-based, Canis lupus familiaris; conditions: in vivo, read-out: Vdss
[17] = molecular target: T2, Histone deacetylase 7 (Homo sapiens, UniProt Q8WUI4); experiment: Inhibition of wild type His-tagged HDAC7 catalytic domain T515-L952 expressed in Escherichia coli
T2 sequence (Q8WUI4 whole entry): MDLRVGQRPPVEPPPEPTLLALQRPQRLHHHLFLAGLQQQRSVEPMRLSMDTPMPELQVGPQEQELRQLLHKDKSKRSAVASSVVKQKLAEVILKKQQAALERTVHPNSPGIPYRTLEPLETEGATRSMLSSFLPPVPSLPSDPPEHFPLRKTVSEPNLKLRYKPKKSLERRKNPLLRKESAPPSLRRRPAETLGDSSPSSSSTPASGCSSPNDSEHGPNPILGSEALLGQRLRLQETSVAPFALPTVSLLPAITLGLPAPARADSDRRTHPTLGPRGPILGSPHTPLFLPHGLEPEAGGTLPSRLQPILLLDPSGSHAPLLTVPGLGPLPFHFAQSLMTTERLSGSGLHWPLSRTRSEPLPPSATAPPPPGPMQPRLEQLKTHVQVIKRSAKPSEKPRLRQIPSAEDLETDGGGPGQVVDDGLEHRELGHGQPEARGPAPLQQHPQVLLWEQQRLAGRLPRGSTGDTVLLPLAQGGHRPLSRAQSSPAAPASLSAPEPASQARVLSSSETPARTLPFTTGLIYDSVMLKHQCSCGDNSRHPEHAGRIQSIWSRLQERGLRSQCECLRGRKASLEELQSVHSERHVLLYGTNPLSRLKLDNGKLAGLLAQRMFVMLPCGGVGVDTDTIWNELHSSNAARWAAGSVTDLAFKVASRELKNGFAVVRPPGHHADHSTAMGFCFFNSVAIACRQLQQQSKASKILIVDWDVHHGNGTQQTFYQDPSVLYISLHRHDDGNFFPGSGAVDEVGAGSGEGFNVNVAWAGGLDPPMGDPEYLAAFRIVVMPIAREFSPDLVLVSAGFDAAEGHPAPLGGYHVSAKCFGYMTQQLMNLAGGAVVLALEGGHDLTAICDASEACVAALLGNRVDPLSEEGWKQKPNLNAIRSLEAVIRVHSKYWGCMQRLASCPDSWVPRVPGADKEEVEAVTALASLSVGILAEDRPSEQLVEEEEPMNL

[18] = tested on: U-937; experiment: Antiproliferative activity against human U937 cells after 72 hrs by celltiter-blue cell viability assay; type: functional; conditions: U-937, 72 h
[19] = Terminal half life in Beagle dog at 1 mg/kg, iv and 2 mg/kg, po; type: ADME, organism-based, Canis lupus familiaris; conditions: in vivo, read-out: beta t1/2 (converted)
[20] = tested on: HCT-116; experiment: Antitumor activity against human HCT116 cells xenografted BALB/c nu/nu mouse assessed as reduction in tumor growth at 10 mg/kg, ip administered once daily for 5 days per week; type: functional, organism-based; parameters: dose 10 mg/kg
[21] = tested on: Mus musculus; experiment: Toxicity in BALB/c nu/nu mouse assessed as body weight loss at 10 mg/kg, ip administered once daily for 5 days per week; type: organism-based; parameters: dose 10 mg/kg, route intraperitoneal; conditions: in vivo, 120 h
[22] = Plasma concentration in Beagle dog at 2 mg/kg, po after 24 hrs; type: ADME, organism-based, Canis lupus familiaris; parameters: dose 2 mg/kg, route oral
[23] = Oral bioavailability in Beagle dog at 2 mg/kg; type: ADME, organism-based, Canis lupus familiaris; conditions: in vivo
[24] = Terminal half life in Sprague-Dawley rat at 3 mg/kg, iv and 3 mg/kg, po; type: ADME, organism-based; conditions: in vivo, read-out: beta t1/2 (converted)
[25] = molecular target: Cytochrome P450 2C9 (Homo sapiens, UniProt P11712); experiment: Inhibition of CYP2C9; type: ADME
[26] = molecular target: T3, Protein deacetylase HDAC6 (Homo sapiens, UniProt Q9UBN7)
T3 sequence (Q9UBN7 whole entry): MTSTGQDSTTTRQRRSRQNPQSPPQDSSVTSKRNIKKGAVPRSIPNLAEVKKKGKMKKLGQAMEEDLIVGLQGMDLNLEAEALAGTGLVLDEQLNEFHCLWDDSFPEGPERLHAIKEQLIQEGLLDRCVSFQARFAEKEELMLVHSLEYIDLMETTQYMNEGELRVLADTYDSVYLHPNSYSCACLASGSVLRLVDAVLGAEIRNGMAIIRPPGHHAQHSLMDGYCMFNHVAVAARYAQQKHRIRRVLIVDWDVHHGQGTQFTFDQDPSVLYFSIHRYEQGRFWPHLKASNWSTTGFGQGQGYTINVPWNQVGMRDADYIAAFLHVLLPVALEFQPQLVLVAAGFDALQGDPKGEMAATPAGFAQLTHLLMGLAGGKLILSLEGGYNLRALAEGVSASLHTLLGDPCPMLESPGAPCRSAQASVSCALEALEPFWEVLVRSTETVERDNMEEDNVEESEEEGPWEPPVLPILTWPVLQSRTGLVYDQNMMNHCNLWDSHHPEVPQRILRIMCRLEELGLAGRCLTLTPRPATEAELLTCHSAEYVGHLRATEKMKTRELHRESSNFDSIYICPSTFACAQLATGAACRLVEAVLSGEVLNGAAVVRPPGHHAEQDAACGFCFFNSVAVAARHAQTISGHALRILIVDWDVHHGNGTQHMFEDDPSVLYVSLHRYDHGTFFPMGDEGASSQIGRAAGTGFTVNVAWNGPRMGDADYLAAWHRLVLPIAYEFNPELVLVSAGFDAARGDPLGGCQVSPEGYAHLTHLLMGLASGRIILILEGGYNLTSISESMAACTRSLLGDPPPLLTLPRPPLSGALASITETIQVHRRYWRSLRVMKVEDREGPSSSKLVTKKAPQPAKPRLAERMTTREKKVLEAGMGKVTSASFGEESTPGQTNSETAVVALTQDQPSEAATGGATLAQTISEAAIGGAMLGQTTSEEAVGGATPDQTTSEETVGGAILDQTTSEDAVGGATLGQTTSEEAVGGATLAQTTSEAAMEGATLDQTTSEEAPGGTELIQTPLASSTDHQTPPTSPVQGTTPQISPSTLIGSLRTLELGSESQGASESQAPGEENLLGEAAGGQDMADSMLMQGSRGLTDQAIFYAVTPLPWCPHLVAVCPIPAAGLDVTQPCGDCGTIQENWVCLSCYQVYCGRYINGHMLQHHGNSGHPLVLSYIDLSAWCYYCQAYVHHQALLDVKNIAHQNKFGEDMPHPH
Description: Inhibition of C-terminal FLAG-tagged HDAC6 expressed in mammalian cells

[27] = molecular target: Histone deacetylase 5 (Homo sapiens, UniProt Q9UQL6); experiment: Inhibition of wild type His-tagged HDAC5 catalytic domain T678-L1122 expressed in Escherichia coli
[28] = Toxicity in ip dosed BALB/c nu/nu mouse assessed as maximum tolerated dose; type: organism-based; conditions: in vivo
[29] = Volume of distribution at steady state in Sprague-Dawley rat at 3 mg/kg, iv and 3 mg/kg, po; type: ADME, organism-based; conditions: in vivo, read-out: Vdss
[30] = Clearance in Beagle dog at 1 mg/kg, iv and 2 mg/kg, po; type: ADME, organism-based, Canis lupus familiaris; conditions: in vivo
[31] = Solubility in buffered aqueous solution at pH 4.1; type: physicochemical
[32] = Oral bioavailability in Sprague-Dawley rat at 3 mg/kg; type: ADME, organism-based; conditions: in vivo
[33] = tested on: Mus musculus; experiment: Toxicity in BALB/c nu/nu mouse assessed as adverse effect at 10 mg/kg, ip administered once daily for 5 days per week; type: organism-based; parameters: dose 10 mg/kg, route intraperitoneal; conditions: in vivo, 120 h

Histone deacetylase 1, sequence (Q13547 whole entry): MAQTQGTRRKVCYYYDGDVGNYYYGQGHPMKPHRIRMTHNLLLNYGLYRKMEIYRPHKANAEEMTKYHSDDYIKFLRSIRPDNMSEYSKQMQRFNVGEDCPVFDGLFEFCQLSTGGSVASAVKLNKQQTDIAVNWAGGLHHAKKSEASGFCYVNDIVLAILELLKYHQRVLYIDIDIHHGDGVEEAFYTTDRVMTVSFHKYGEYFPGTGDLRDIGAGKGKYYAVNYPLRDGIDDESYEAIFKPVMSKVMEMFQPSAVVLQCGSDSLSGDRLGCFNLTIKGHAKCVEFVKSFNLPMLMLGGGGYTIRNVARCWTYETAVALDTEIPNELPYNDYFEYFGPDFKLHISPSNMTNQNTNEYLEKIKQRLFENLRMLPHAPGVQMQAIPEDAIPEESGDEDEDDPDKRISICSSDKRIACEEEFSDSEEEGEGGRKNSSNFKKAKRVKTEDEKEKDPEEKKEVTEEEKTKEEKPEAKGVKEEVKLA
T1 sequence (P08684 whole entry): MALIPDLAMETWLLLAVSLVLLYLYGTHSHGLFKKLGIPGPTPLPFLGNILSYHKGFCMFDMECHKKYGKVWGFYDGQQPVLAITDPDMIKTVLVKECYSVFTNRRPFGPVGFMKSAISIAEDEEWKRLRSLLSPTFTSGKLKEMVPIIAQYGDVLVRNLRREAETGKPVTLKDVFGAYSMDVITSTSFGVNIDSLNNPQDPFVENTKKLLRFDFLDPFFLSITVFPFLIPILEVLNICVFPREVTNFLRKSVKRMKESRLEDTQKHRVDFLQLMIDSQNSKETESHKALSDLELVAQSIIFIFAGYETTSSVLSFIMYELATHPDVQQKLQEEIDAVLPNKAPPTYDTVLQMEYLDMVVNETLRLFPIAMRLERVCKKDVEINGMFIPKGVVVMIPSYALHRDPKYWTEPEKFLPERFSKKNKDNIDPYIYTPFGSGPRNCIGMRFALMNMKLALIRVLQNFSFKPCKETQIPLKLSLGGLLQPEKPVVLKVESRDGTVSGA
Histone deacetylase 5, sequence (Q9UQL6 whole entry, the tested form may be a part): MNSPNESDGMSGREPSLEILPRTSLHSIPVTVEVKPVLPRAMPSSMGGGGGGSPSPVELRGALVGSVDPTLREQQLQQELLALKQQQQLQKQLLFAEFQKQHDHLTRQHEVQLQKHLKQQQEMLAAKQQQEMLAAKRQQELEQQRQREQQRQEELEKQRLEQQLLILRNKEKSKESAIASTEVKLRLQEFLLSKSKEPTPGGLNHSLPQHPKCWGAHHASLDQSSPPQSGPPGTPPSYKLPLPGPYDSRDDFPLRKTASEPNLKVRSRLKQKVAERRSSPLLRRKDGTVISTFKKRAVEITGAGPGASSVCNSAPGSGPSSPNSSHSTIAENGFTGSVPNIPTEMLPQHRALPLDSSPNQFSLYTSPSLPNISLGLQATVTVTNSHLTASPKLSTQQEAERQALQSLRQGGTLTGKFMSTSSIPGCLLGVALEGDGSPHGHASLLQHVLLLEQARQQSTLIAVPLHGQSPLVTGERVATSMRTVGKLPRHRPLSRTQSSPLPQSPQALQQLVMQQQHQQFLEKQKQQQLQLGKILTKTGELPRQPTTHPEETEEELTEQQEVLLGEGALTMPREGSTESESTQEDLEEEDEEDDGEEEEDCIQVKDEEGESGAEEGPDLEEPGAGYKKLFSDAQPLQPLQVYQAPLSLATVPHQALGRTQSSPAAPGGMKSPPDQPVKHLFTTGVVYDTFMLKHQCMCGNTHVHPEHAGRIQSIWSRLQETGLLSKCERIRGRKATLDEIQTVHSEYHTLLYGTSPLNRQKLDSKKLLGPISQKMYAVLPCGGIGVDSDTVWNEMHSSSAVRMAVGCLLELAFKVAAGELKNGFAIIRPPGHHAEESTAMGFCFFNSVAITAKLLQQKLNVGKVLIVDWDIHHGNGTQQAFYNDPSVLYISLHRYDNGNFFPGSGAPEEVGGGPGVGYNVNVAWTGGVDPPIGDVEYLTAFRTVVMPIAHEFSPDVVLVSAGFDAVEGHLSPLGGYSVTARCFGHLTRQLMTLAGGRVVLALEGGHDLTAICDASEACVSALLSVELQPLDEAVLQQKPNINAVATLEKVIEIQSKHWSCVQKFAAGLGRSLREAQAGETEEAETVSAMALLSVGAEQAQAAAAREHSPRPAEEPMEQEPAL
Cytochrome P450 2C9, sequence (P11712 whole entry): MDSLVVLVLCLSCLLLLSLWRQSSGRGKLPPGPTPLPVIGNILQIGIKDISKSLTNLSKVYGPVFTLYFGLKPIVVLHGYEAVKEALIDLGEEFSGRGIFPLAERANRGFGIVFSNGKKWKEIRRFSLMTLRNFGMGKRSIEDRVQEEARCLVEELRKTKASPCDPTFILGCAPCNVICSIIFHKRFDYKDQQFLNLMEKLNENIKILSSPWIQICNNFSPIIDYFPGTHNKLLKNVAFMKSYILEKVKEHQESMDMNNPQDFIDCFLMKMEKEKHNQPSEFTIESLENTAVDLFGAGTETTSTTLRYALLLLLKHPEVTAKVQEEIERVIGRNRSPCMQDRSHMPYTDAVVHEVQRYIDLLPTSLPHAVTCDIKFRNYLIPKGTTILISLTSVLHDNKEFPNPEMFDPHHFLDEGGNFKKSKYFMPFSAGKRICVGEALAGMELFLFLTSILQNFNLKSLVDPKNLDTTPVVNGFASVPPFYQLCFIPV

SMILES: CCC(=O)CCCCC[C@H](NC(=O)CCN1CCN(C)CC1)c1ncc(-c2cc(OC)c3ccccc3n2)[nH]1
IC50 [1]: 17 nM | CC50 [2]: 390 nM | microsomal CLint at 1 µM [3]: 140 µL/min/mg | microsomal CLint at 1 µM [4]: 170 µL/min/mg | microsomal CLint at 1 µM [5]: 190 µL/min/mg

SMILES: Nc1ccccc1NC(=O)c1ccc(CNC(=O)OCc2cccnc2)cc1 [ENTINOSTAT]
CC50 [6]: 3000 nM | CC50 [7]: 1200 nM | CC50 [2]: 1800 nM | CC50 [8]: 1300 nM | CC50 [9]: 700 nM

SMILES: CCC(=O)CCCCC[C@H](NC(=O)C1CCN(C)CC1)c1ncc(-c2ccc3ccccc3n2)[nH]1
IC50 [1]: 22 nM | CC50 [2]: 480 nM | microsomal CLint at 1 µM [3]: 12 µL/min/mg | clearance [10]: 155 mL/min/kg | microsomal CLint at 1 µM [4]: 9 µL/min/mg | microsomal CLint at 1 µM [5]: 110 µL/min/mg

SMILES: CCC(=O)CCCCC[C@H](NC(=O)C1CN(C)C1)c1ncc(-c2ccc3nccnc3c2)[nH]1
IC50 [1]: 39 nM | CC50 [2]: 1200 nM | microsomal CLint at 1 µM [3]: < 1 µL/min/mg | microsomal CLint at 1 µM [4]: 3 µL/min/mg | microsomal CLint at 1 µM [5]: 13 µL/min/mg

SMILES: CCC(=O)CCCCC[C@H](NC(=O)C1CN(C)C1)c1ncc(-c2cc3ccccc3nc2OC)[nH]1
Activity [11]: Active | CC50 [6]: 740 nM | Activity [12]: Not Active | CC50 [7]: 490 nM | CC50 [2]: 135 nM | microsomal CLint at 1 µM [3]: 31 µL/min/mg | clearance [10]: 19 mL/min/kg | CC50 [13]: 750 nM | concentration at 24 h [14]: > 100 nM | microsomal CLint at 1 µM [4]: 29 µL/min/mg | Activity [15]: Not Active | CC50 [8]: 370 nM | Vd [16]: 3.5 L/kg | IC50 [17]: > 10000 nM | CC50 [18]: 240 nM | half-life [19]: 14 h | Activity [20]: Active | Activity [21]: Non-toxic | concentration at 24 h [22]: > 100 nM | bioavailability [23]: 31% | CC50 [9]: 220 nM | half-life [24]: 7 h | IC50 [25]: 5500 nM | IC50 [26]: 680000 nM | IC50 [27]: > 10000 nM | MTD [28]: 10 mg/kg | Vd [29]: 7.9 L/kg | clearance [30]: 4 mL/min/kg | solubility [31]: 13 mg/mL (≈ 27.2 mM) | bioavailability [32]: 73% | Activity [33]: Non-toxic | microsomal CLint at 1 µM [5]: 29 µL/min/mg

Second part, led by results:

IC50 [1]: 8 nM | microsomal CLint at 1 µM [3]: 29 µL/min/mg | microsomal CLint at 1 µM [4]: 18 µL/min/mg | microsomal CLint at 1 µM [5]: 210 µL/min/mg
SMILES: CCC(=O)CCCCC[C@H](NC(=O)C1CCN(C)CC1)c1ncc(-c2cc3ccccc3cn2)[nH]1
CC50 [2]: 22 nM

IC50 [1]: 4 nM | microsomal CLint at 1 µM [3]: 49 µL/min/mg | microsomal CLint at 1 µM [4]: 24 µL/min/mg | microsomal CLint at 1 µM [5]: 510 µL/min/mg
SMILES: CCC(=O)CCCCC[C@H](NC(=O)C1CCN(C)CC1)c1ncc(-c2cnc3ccccc3c2)[nH]1
CC50 [2]: 250 nM

IC50 [1]: 8 nM | microsomal CLint at 1 µM [3]: 19 µL/min/mg | microsomal CLint at 1 µM [4]: 20 µL/min/mg | microsomal CLint at 1 µM [5]: 27 µL/min/mg
SMILES: CCC(=O)CCCCC[C@H](NC(=O)C1CN(C)C1)c1ncc(-c2cnc3ccccc3n2)[nH]1
CC50 [2]: 430 nM
